# Results from US7994161B2, “Derivatives of 2-alkoxy-3,4,5-trihydroxy-alkyl amides, preparation and use thereof, and compositions containing the same” (Sanofi-Aventis, priority 2006, dated 2011).
# System: HCT116 cells
# Test: Antiproliferative activity: inhibition of cellular proliferation of HCT116 cells (14C-thymidine incorporation)
# Assay type: cell-based
# Details: Homo sapiens, HCT-116, 96 hours
# Protocol: The antiproliferative activity of the products of the examples of Table 1 was determined by measuring the inhibition of the cellular proliferation of HCT116 cells.
# The cells are inoculated into a cell culture medium at a concentration of 10 000 cells per well, in 0.17 mL of medium, and 20 μL of product to be tested, at various concentrations, and 10 μL of thymidine [methyl-14C] (100 μCi/ml—specific activity 47.90 mCi/mmol; NEN Technologies reference NEC568 batch 3550-001) are added, and then the cells are incubated at 37° C. and 5% CO2.
# Medium used for the culture of HCT116 cells:DMEM medium 2 mM L-glutamine, 200 IU/ml penicillin, 200 μg/ml streptomycin and 10% (V/V) foetal calf serum (Life Technologies).
# After 96 hours, the incorporation of ^14C-thymidine is counted in a Microbeta Wallac Trilux 1450 liquid scintillation counter. The results R are expressed in cpm (counts per minute) and converted to percentage growth inhibition GI % by first subtracting the mean of the number of cpm of the wells without B cells and by then dividing by the number of cpm of the wells of the untreated cells C comprising 20 μL of medium for dilution of the product containing 1% ethanol. (GI %=(R−B)×100/C %).
# The IC50 values are calculated with the aid of the equation 205 of the XLFit software (IDBS company, UK) by non-linear regression analysis using the Marquardt algorithm (Donald W. MARQUARDT, J. Soc. industry. appl, vol 11, No. 2, June, 1963).
row,SMILES,IC50 [nM]
1,"CO[C@@H](C(=O)N[C@H]1COc2ccccc2NC1=O)[C@H](O)[C@@H](O)[C@H](O)/C=C/C(C)(C)C [Example 1, N-((S)-8-oxo-6,7,8,9-tetrahydro-5-oxa-9-azabenzocyclohepten-7-yl)-(E)-(2R,3R,4S,5R)-3,4,5-trihydroxy-2-methoxy-8,8-dimethylnon-6-enamide]",60
2,"CO[C@@H](C(=O)N[C@H]1COc2ccccc2N(C)C1=O)[C@H](O)[C@@H](O)[C@H](O)/C=C/C(C)(C)C [Example 2, N-((S)-9-methyl-8-oxo-6,7,8,9-tetrahydro-5-oxa-9-azabenzocyclohepten-7-yl)-(E)-(2R,3R,4S,5R)-3,4,5-trihydroxy-2-methoxy-8,8-dimethylnon-6-enamide]",32
3,"CO[C@@H](C(=O)N[C@H]1CNc2ccccc2NC1=O)[C@H](O)[C@@H](O)[C@H](O)/C=C/C(C)(C)C [Example 3, N-((S)-2-oxo-2,3,4,5-tetrahydro-1H-1,5-benzodiazepin-3-yl)-(E)-(2R,3R,4S,5R)-3,4,5-trihydroxy-2-methoxy-8,8-dimethylnon-6-enamide]",88

# Second part, the compound after the results:
row,IC50 [nM],SMILES
1,28,"CO[C@@H](C(=O)NC1CN(C)c2ccccc2NC1=O)[C@H](O)[C@@H](O)[C@H](O)/C=C/C(C)(C)C (stereo partly drawn) [Example 5, N-((S)-1-methyl-4-oxo-2,3,4,5-tetrahydro-1H-1,5-bezodiazepin-3-yl)-(E)-(2R,3R,4S,5R)-3,4,5-trihydroxy-2-methoxy-8,8-dimethylnon-6-enamide]"
2,45,"CO[C@@H](C(=O)N[C@H]1CNc2ccccc2N(C)C1=O)[C@H](O)[C@@H](O)[C@H](O)/C=C/C(C)(C)C [Example 4, N-((S)-1-methyl-2-oxo-2,3,4,5-tetrahydro-1H-1,5-benzodiazepin-3-yl)-(E)-(2R,3R,4S,5R)-3,4,5-trihydroxy-2-methoxy-8,8-dimethylnon-6-enamide]"

# System: not listed separately
# Test: in vitro
# Details: human, Caco-2
row,Papp [×10⁻⁶ cm/s],SMILES
1,5.2,"CO[C@@H](C(=O)N[C@H]1COc2ccccc2N(C)C1=O)[C@H](O)[C@@H](O)[C@H](O)/C=C/C(C)(C)C [Example 2, N-((S)-9-methyl-8-oxo-6,7,8,9-tetrahydro-5-oxa-9-azabenzocyclohepten-7-yl)-(E)-(2R,3R,4S,5R)-3,4,5-trihydroxy-2-methoxy-8,8-dimethylnon-6-enamide]"
